Source: patent US7396837B2, “Antitumoral analogs of lamellarins” (Pharma Mar, S.A.U., priority 2002, dated 2008)
Like-named read-outs stand apart in the source and are kept apart here.

What was measured:
Format in all cases: cell-based
[1] = test system: K-562; assay: SRB colorimetric cell growth inhibition assay, K-562; conditions: Homo sapiens
Procedure, shortened: (§1)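 Cancer cells grown in vitro were continuously treated with compound. Cell mass was then determined by SRB staining and expressed as growth inhibition.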

[2] = test system: LoVo-Dox; assay: SRB colorimetric cell growth inhibition assay, LoVo-Dox (MDR); conditions: Homo sapiens; for GI50: read-out: GI50 LOVO-DOX; for CC50: read-out: LC50 LOVO-DOX; for IC (TGI): read-out: TGI LOVO-DOX
Procedure, shortened: as §1

[3] = test system: LoVo; assay: SRB colorimetric cell growth inhibition assay, LoVo; conditions: Homo sapiens, LoVo; for GI50: read-out: GI50 LOVO; for CC50: read-out: LC50 LOVO; for IC (TGI): read-out: TGI LOVO
Procedure, shortened: as §1

[4] = test system: DU-145; assay: SRB colorimetric cell growth inhibition assay, DU-145; conditions: Homo sapiens
Procedure, shortened: as §1

[5] = test system: SK-BR-3; assay: SRB colorimetric cell growth inhibition assay, SK-BR-3; conditions: Homo sapiens
Procedure, shortened: as §1

[6] = test system: IGROV; assay: SRB colorimetric cell growth inhibition assay, IGROV; conditions: Homo sapiens, IGROV; for GI50: read-out: GI50 IGROV; for CC50: read-out: LC50 IGROV; for IC (TGI): read-out: TGI IGROV
Procedure, shortened: as §1

[7] = test system: LNCaP; assay: SRB colorimetric cell growth inhibition assay, LNCaP; conditions: Homo sapiens, LNCaP; for GI50: read-out: GI50 LN-caP; for CC50: read-out: LC50 LN-caP; for IC (TGI): read-out: TGI LN-caP
Procedure, shortened: as §1

[8] = test system: PANC-1; assay: SRB colorimetric cell growth inhibition assay, PANC-1; conditions: Homo sapiens
Procedure, shortened: as §1

[9] = test system: IGROV-ET; assay: SRB colorimetric cell growth inhibition assay, IGROV-ET (ET-743 resistant); conditions: Homo sapiens; for GI50: read-out: GI50 IGROV-ET; for CC50: read-out: LC50 IGROV-ET; for IC (TGI): read-out: TGI IGROV-ET
Procedure, shortened: as §1

[10] = test system: A-549; assay: SRB colorimetric cell growth inhibition assay, A-549; conditions: Homo sapiens
Procedure, shortened: as §1

[11] = test system: HeLa; assay: SRB colorimetric cell growth inhibition assay, HeLa; conditions: Homo sapiens, HeLa; for GI50: read-out: GI50 HELA; for CC50: read-out: LC50 HELA; for IC (TGI): read-out: TGI HELA
Procedure, shortened: as §1

[12] = test system: HeLa-APL; assay: SRB colorimetric cell growth inhibition assay, HeLa-APL (aplidine resistant); conditions: Homo sapiens; for GI50: read-out: GI50 HELA-APL; for CC50: read-out: LC50 HELA-APL; for IC (TGI): read-out: TGI HELA-APL
Procedure, shortened: as §1

[13] = test system: SK-MEL-28; assay: SRB colorimetric cell growth inhibition assay, SK-MEL-28; conditions: Homo sapiens
Procedure, shortened: as §1

[14] = test system: HT-29; assay: SRB colorimetric cell growth inhibition assay, HT-29; conditions: Homo sapiens
Procedure, shortened: as §1

[15] = cell killing (cytotoxic effect)
[16] = total growth inhibition (cytostatic effect)

COc1cc(-c2c3c4cc(OC)c(OC(=O)[C@H](C)NC(=O)[C@H](C)NC(=O)OC(C)(C)C)cc4oc(=O)c3n3ccc4c(OC(=O)[C@H](C)NC(=O)[C@H](C)NC(=O)OC(C)(C)C)c(OC)c(OC)cc4c23)ccc1OC(=O)[C@H](C)NC(=O)[C@H](C)NC(=O)OC(C)(C)C [Compound 6]
GI50 ([1]; K562, read-out: GI50 K-562): 0.482 µM | CC50 ([1]; K562, read-out: LC50 K-562): 7.96 µM | IC (TGI) ([1]; K562, read-out: TGI K-562): 5.38 µM | GI50 [2]: 3.84 µM | CC50 [2]: 7.96 µM | IC (TGI) [2]: 7.96 µM | GI50 [3]: 2.79 µM | CC50 [3]: 7.96 µM | IC (TGI) [3]: 7.96 µM | GI50 ([4]; DU-145, read-out: GI50 DU-145): 0.355 µM | CC50 ([4]; DU-145, read-out: LC50 DU-145): 7.96 µM | IC (TGI) ([4]; DU-145, read-out: TGI DU-145): 1.46 µM | GI50 ([5]; SK-BR-3, read-out: GI50 SK-BR-3): 0.548 µM | CC50 ([5]; SK-BR-3, read-out: LC50 SK-BR-3): 7.96 µM | IC (TGI) ([5]; SK-BR-3, read-out: TGI SK-BR-3): 2.56 µM | GI50 [6]: 0.963 µM | CC50 [6]: 7.96 µM | IC (TGI) [6]: 7.96 µM | GI50 [7]: 0.578 µM | CC50 [7]: 7.96 µM | IC (TGI) [7]: 7.96 µM | GI50 ([8]; PANC-1, read-out: GI50 PANC-1): 2.46 µM | CC50 ([8]; PANC-1, read-out: LC50 PANC-1): 7.96 µM | IC (TGI) ([8]; PANC-1, read-out: TGI PANC-1): 7.96 µM | GI50 [9]: 1.39 µM | CC50 [9]: 7.96 µM | IC (TGI) [9]: 7.96 µM | GI50 ([10]; A549, read-out: GI50 A-549): 0.497 µM | CC50 ([10]; A549, read-out: LC50 A-549): 7.96 µM | IC (TGI) ([10]; A549, read-out: TGI A-549): 7.96 µM | GI50 [11]: 0.584 µM | CC50 [11]: 7.96 µM | IC (TGI) [11]: 7.96 µM | GI50 [12]: 3.41 µM | CC50 [12]: 7.96 µM | IC (TGI) [12]: 7.96 µM | GI50 ([13]; SK-MEL-28, read-out: GI50 MEL-28): 0.386 µM | CC50 ([13]; SK-MEL-28, read-out: LC50 MEL-28): 7.96 µM | IC (TGI) ([13]; SK-MEL-28, read-out: TGI MEL-28): 1.74 µM | GI50 ([14]; HT-29, read-out: GI50 HT-29): 7.96 µM | CC50 ([14]; HT-29, read-out: LC50 HT-29): 7.96 µM | IC (TGI) ([14]; HT-29, read-out: TGI HT-29): 7.96 µM

COc1cc(-c2c3c4cc(OC)c(OC(=O)CCc5ccccc5)cc4oc(=O)c3n3ccc4cc(OC(=O)CCc5ccccc5)c(OC)cc4c23)ccc1OC(=O)CCc1ccccc1 [Compound 8]
GI50 ([1]; K562, K-562, GI=growth inhibition, read-out: GI50 K-562): 0.225 µM | CC50 ([1]; K562, K-562, cell killing (cytotoxic effect), read-out: LC50 K-562): 7.49 µM | IC (TGI) ([1]; K562, K-562, total growth inhibition (cytostatic effect), read-out: TGI K-562): 1.57 µM | GI50 ([2]; LOVO-DOX, GI=growth inhibition): 8.34 µM | CC50 ([2]; LOVO-DOX, cell killing (cytotoxic effect)): 11.2 µM | IC (TGI) ([2]; LOVO-DOX, total growth inhibition (cytostatic effect)): 11.2 µM | GI50 ([3]; GI=growth inhibition): 1.48 µM | CC50 [3, 15]: 11.2 µM | IC (TGI) [3, 16]: 4.68 µM | GI50 ([4]; DU-145, DU-145, GI=growth inhibition, read-out: GI50 DU-145): 0.703 µM | CC50 ([4]; DU-145, DU-145, cell killing (cytotoxic effect), read-out: LC50 DU-145): 9.43 µM | IC (TGI) ([4]; DU-145, DU-145, total growth inhibition (cytostatic effect), read-out: TGI DU-145): 2.6 µM | GI50 ([5]; SK-BR-3, SK-BR-3, GI=growth inhibition, read-out: GI50 SK-BR-3): 0.915 µM | CC50 ([5]; SK-BR-3, SK-BR-3, cell killing (cytotoxic effect), read-out: LC50 SK-BR-3): 9.19 µM | IC (TGI) ([5]; SK-BR-3, SK-BR-3, total growth inhibition (cytostatic effect), read-out: TGI SK-BR-3): 3.04 µM | GI50 ([6]; GI=growth inhibition): 0.445 µM | CC50 [6, 15]: 11.2 µM | IC (TGI) [6, 16]: 2.17 µM | GI50 ([7]; LN-caP, GI=growth inhibition): 0.654 µM | CC50 ([7]; LN-caP, cell killing (cytotoxic effect)): 7.21 µM | IC (TGI) ([7]; LN-caP, total growth inhibition (cytostatic effect)): 2.47 µM | GI50 ([8]; PANC-1, PANC-1, GI=growth inhibition, read-out: GI50 PANC-1): 0.231 µM | CC50 ([8]; PANC-1, PANC-1, cell killing (cytotoxic effect), read-out: LC50 PANC-1): 11.2 µM | IC (TGI) ([8]; PANC-1, PANC-1, total growth inhibition (cytostatic effect), read-out: TGI PANC-1): 0.865 µM | GI50 ([9]; IGROV-ET, GI=growth inhibition): 3.35 µM | CC50 ([9]; IGROV-ET, cell killing (cytotoxic effect)): 11.2 µM | IC (TGI) ([9]; IGROV-ET, total growth inhibition (cytostatic effect)): 11.2 µM | GI50 ([10]; A549, A-549, GI=growth inhibition, read-out: GI50 A-549): 0.744 µM | CC50 ([10]; A549, A-549, cell killing (cytotoxic effect), read-out: LC50 A-549): 11.2 µM | IC (TGI) ([10]; A549, A-549, total growth inhibition (cytostatic effect), read-out: TGI A-549): 6.34 µM | GI50 ([11]; GI=growth inhibition): 0.276 µM | CC50 [11, 15]: 7.92 µM | IC (TGI) [11, 16]: 1.41 µM | GI50 ([12]; HELA-APL, GI=growth inhibition): 7.3 µM | CC50 ([12]; HELA-APL, cell killing (cytotoxic effect)): 11.2 µM | IC (TGI) ([12]; HELA-APL, total growth inhibition (cytostatic effect)): 11.2 µM | GI50 ([13]; SK-MEL-28, MEL-28, GI=growth inhibition, read-out: GI50 MEL-28): 0.407 µM | CC50 ([13]; SK-MEL-28, MEL-28, cell killing (cytotoxic effect), read-out: LC50 MEL-28): 11.2 µM | IC (TGI) ([13]; SK-MEL-28, MEL-28, total growth inhibition (cytostatic effect), read-out: TGI MEL-28): 2.2 µM | GI50 ([14]; HT-29, HT-29, GI=growth inhibition, read-out: GI50 HT-29): 0.377 µM | CC50 ([14]; HT-29, HT-29, cell killing (cytotoxic effect), read-out: LC50 HT-29): 11.2 µM | IC (TGI) ([14]; HT-29, HT-29, total growth inhibition (cytostatic effect), read-out: TGI HT-29): 11.2 µM
